Reference: the supplement of paper PMC10307832

What was measured:
Assay in all cases: relative viability (nuclei count vs DMSO), 5 days (fraction); higher = more cells survive
JZL-184 + Trametinib = compound: C1CN(CCC1C(C2=CC3=C(C=C2)OCO3)(C4=CC5=C(C=C4)OCO5)O)C(=O)OC6=CC=C(C=C6)[N+](=O)[O-] [JZL-184] + CC(=O)Nc1cccc(-n2c(=O)n(C3CC3)c(=O)c3c(Nc4ccc(I)cc4F)n(C)c(=O)c(C)c32)c1 [Trametinib] (partner 0.02 µM)
How it was run: (§1)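 Relative viability equals treated-well nuclei counts divided by vehicle-well nuclei counts. Counts came from 4× images of lung cancer cell lines grown in 1536-well plates for 5 days after pin-tool dosing on the day after seeding. Dosing used one drug alone or a fixed anchor-drug dose plus five library-drug doses (not always all listed) in √10 steps, and values are medians of duplicate plates.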

JZL-184 + Pictilisib = compound: C1CN(CCC1C(C2=CC3=C(C=C2)OCO3)(C4=CC5=C(C=C4)OCO5)O)C(=O)OC6=CC=C(C=C6)[N+](=O)[O-] [JZL-184] + CS(=O)(=O)N1CCN(Cc2cc3nc(-c4cccc5[nH]ncc45)nc(N4CCOCC4)c3s2)CC1 [Pictilisib] (partner 1 µM)
How it was run: as §1

JZL-184 + Crizotinib = compound: C1CN(CCC1C(C2=CC3=C(C=C2)OCO3)(C4=CC5=C(C=C4)OCO5)O)C(=O)OC6=CC=C(C=C6)[N+](=O)[O-] [JZL-184] + C[C@@H](Oc1cc(-c2cnn(C3CCNCC3)c2)cnc1N)c1c(Cl)ccc(F)c1Cl [Crizotinib] (partner 1 µM)
How it was run: as §1

JZL-184 + AZD7762 = compound: C1CN(CCC1C(C2=CC3=C(C=C2)OCO3)(C4=CC5=C(C=C4)OCO5)O)C(=O)OC6=CC=C(C=C6)[N+](=O)[O-] [JZL-184] + NC(=O)Nc1cc(-c2cccc(F)c2)sc1C(=O)N[C@H]1CCCNC1 [AZD7762] (partner 0.2 µM)
How it was run: as §1

JZL-184 + Olaparib = compound: C1CN(CCC1C(C2=CC3=C(C=C2)OCO3)(C4=CC5=C(C=C4)OCO5)O)C(=O)OC6=CC=C(C=C6)[N+](=O)[O-] [JZL-184] + O=C(c1cc(Cc2n[nH]c(=O)c3ccccc23)ccc1F)N1CCN(C(=O)C2CC2)CC1 [Olaparib] (partner 8 µM)
How it was run: as §1

Cell Line	relative viability (JZL-184 + Trametinib; first compound 0.04 µM)	relative viability (JZL-184 + Trametinib; first compound 0.4 µM)	relative viability (JZL-184 + Trametinib; first compound 1.265 µM)	relative viability (JZL-184 + Trametinib; first compound 4 µM)	relative viability (JZL-184 + Pictilisib; first compound 0.04 µM)	relative viability (JZL-184 + Pictilisib; first compound 0.4 µM)	relative viability (JZL-184 + Pictilisib; first compound 1.265 µM)	relative viability (JZL-184 + Pictilisib; first compound 4 µM)	relative viability (JZL-184 + Crizotinib; first compound 0.04 µM)	relative viability (JZL-184 + Crizotinib; first compound 0.4 µM)	relative viability (JZL-184 + Crizotinib; first compound 1.265 µM)	relative viability (JZL-184 + Crizotinib; first compound 4 µM)	relative viability (JZL-184 + AZD7762; first compound 0.04 µM)	relative viability (JZL-184 + AZD7762; first compound 0.4 µM)	relative viability (JZL-184 + AZD7762; first compound 1.265 µM)	relative viability (JZL-184 + AZD7762; first compound 4 µM)	relative viability (JZL-184 + Olaparib; first compound 0.04 µM)	relative viability (JZL-184 + Olaparib; first compound 0.4 µM)	relative viability (JZL-184 + Olaparib; first compound 1.265 µM)	relative viability (JZL-184 + Olaparib; first compound 4 µM)
EPLC-272H	0.288	0.32	0.272	0.23	0.317	0.271	0.38	0.314	1.03	0.814	1.93	1.03	0.194	0.186	0.211	0.302	0.68	0.613	0.805	0.778
HCC-366	0.384	0.348	0.332	0.276	0.158	0.179	0.155	0.113	0.827	0.443	0.526	0.5	0.293	0.209	0.275	0.257	0.361	0.353	0.302	0.36
HCC-44	1.04	1.07	1.04	1.01	0.592	0.549	0.622	0.528	0.815	0.78	0.815	0.783	1.14	1.01	1.03	0.987	1.04	0.98	0.97	0.928
NCI-H23	0.409	–	0.358	0.392	0.561	0.432	0.538	0.492	0.611	0.444	0.521	0.43	0.203	–	0.25	0.283	0.388	–	0.303	0.366
NCI-H727	0.416	0.366	0.414	0.39	0.505	0.393	0.333	0.473	0.876	0.728	0.903	0.864	0.493	0.464	0.621	0.595	0.661	0.723	0.747	0.552
NCI-H1355	0.44	0.403	0.423	0.38	0.431	0.357	0.555	0.396	1.06	1.01	1.22	0.925	0.922	0.674	0.769	0.733	0.775	0.708	0.78	0.707
NCI-H1944	0.438	0.385	0.452	0.417	0.345	0.318	0.34	0.335	1.27	1.04	1.12	1.04	0.556	0.469	0.531	0.54	0.402	0.351	0.401	0.444
NCI-H2087	0.181	0.173	0.182	0.188	0.824	0.677	0.934	1	0.928	0.816	0.757	0.93	1.33	1.2	1.26	1.34	0.714	0.585	0.665	0.517
